According to patent US10858364B2, “Imidazopyrazine inhibitors of Bruton's tyrosine kinase” (Acerta Pharma B.V., priority 2016, dated 2020):

Experiments:
CYP2B6 [1] = target: CYP2B6 (Homo sapiens (Human), UniProt P20813); assay: CYP inhibition, CYP2B6; type: in vitro ADME
CYP1A2 [2] = assay: CYP induction, CYP1A2; type: in vitro ADME
CYP3A4/5 = assay: CYP inhibition, CYP3A4/5; type: in vitro ADME
CYP2B6 [3] = assay: CYP induction, CYP2B6; type: in vitro ADME
CYP1A2 [4] = target: CYP1A2 (Homo sapiens (Human), UniProt P05177)
CYP2C19 = CYP2C19 (Homo sapiens (Human), UniProt P33261); assay: CYP inhibition, CYP2C19; type: in vitro ADME
CYP2C8 = CYP2C8 (Homo sapiens (Human), UniProt P10632); assay: CYP inhibition, CYP2C8; type: in vitro ADME
[5] = Clinical pharmacokinetics of acalabrutinib and its major metabolite; type: in vivo, human
From the text: The compound of Formula (I) was identified as the major metabolite in plasma with a geometric mean exposure (AUC) approximately 2- to 3-fold higher than the exposure of acalabrutinib.
Acalabrutinib and the major metabolite form a covalent bond with a cysteine residue in the BTK active site, leading to inhibition of BTK enzymatic activity. Acalabrutinib binding with the cysteine residue occurs rapidly and irreversibly and provides high target occupancy at steady state.

CYP2D6 = CYP2D6 (Homo sapiens (Human), UniProt P10635); assay: CYP inhibition, CYP2D6; type: in vitro ADME
CYP3A enzymes = assay: In vitro metabolism studies; type: in vitro ADME
CYP2C9 = CYP2C9 (Homo sapiens (Human), UniProt P11712); assay: CYP inhibition, CYP2C9; type: in vitro ADME
CYP3A4 = assay: CYP induction, CYP3A4; type: in vitro ADME

Sequence of CYP2C9 (P11712 whole entry): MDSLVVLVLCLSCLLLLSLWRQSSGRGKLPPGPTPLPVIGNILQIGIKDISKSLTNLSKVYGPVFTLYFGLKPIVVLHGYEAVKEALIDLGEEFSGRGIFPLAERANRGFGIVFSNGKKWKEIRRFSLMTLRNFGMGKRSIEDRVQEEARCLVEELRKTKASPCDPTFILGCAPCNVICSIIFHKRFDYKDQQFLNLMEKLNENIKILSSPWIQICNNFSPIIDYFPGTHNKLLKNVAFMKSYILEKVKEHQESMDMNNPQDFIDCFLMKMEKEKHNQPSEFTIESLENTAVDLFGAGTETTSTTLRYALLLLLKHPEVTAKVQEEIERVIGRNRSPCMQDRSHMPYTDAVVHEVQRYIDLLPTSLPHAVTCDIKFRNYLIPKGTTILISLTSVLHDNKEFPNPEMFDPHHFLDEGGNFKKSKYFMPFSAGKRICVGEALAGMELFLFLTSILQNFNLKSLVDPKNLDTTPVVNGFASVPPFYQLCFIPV
Sequence of CYP2D6 (P10635 whole entry): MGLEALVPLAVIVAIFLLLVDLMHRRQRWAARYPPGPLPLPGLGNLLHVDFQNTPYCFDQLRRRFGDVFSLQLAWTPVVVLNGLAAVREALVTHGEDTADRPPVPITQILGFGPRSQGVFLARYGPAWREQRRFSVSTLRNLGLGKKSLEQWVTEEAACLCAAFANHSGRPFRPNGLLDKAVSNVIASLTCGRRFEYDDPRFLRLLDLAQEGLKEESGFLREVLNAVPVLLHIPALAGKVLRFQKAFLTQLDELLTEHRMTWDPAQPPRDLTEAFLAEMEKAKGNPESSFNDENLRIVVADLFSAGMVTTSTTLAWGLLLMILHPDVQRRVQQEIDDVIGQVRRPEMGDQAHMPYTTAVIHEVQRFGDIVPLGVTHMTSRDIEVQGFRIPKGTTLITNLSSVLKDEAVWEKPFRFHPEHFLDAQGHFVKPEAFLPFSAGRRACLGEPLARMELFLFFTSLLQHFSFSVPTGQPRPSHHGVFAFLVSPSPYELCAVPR
Sequence of CYP2C19 (P33261 whole entry): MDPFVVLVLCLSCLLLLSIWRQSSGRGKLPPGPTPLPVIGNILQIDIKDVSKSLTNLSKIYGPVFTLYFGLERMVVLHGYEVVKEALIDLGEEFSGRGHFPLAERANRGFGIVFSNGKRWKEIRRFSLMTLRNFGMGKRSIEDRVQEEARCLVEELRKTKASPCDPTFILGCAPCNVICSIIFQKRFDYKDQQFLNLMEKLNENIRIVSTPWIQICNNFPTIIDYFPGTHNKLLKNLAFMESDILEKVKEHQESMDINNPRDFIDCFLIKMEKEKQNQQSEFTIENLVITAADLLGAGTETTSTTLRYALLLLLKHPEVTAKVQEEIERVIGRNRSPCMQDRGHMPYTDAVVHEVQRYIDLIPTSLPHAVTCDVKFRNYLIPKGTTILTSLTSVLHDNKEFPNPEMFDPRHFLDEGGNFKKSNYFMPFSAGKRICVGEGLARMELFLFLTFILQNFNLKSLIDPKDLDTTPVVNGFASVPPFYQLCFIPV
Sequence of CYP1A2 (Homo sapiens (Human), UniProt P05177) (P05177 whole entry): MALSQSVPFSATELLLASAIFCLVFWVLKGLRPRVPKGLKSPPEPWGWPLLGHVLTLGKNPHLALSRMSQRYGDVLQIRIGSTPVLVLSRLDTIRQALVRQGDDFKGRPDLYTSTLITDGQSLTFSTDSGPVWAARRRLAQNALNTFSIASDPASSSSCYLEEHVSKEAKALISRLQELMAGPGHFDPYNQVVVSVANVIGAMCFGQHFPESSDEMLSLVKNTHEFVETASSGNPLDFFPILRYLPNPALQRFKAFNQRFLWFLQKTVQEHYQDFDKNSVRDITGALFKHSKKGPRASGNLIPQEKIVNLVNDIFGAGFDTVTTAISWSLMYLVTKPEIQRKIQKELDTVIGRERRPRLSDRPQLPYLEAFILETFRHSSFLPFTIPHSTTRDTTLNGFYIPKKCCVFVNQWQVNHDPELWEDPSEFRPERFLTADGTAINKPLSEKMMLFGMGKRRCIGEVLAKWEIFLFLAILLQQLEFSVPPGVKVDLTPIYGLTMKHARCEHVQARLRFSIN
Sequence of CYP2C8 (P10632 whole entry): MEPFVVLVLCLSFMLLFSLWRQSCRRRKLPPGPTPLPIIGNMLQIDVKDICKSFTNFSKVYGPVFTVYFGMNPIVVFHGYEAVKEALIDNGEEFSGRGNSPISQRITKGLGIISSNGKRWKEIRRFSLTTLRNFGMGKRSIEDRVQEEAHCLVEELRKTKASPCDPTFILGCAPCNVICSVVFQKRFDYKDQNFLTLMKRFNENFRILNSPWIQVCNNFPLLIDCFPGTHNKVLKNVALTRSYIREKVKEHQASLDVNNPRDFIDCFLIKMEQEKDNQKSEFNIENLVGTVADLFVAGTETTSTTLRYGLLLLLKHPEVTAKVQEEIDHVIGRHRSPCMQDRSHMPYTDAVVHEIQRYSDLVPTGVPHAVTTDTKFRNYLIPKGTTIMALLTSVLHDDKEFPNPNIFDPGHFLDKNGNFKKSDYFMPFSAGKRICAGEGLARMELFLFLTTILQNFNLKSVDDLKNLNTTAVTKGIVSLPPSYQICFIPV
Sequence of CYP2B6 (Homo sapiens (Human), UniProt P20813) (P20813 whole entry): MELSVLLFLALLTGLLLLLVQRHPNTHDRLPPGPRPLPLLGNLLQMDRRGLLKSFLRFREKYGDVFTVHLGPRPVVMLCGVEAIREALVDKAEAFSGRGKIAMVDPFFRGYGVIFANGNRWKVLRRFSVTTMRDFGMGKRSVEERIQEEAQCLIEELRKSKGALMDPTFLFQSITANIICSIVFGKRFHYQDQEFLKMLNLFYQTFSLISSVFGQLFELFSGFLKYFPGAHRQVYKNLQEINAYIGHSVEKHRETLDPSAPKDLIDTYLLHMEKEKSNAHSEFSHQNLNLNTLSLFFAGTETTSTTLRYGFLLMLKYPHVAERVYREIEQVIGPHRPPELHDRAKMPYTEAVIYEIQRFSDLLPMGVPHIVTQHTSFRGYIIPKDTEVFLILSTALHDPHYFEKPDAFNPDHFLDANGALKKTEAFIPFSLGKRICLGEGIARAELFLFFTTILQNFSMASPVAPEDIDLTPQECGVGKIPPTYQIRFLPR

Which results are given for `CC#CC(=O)N1CCC[C@H]1c1nc(-c2ccc(C(=O)Nc3ccccn3)cc2)c2c(N)nccn12` [acalabrutinib, reference compound]?
CYP2B6 inhibition (CYP2B6 [1]): does not inhibit; CYP1A2 induction (CYP1A2 [2]): weak inducer; CYP3A4/5 inhibition (CYP3A4/5): weak inhibitor; CYP2B6 induction (CYP2B6 [3]): weak inducer; CYP1A2 inhibition (CYP1A2 [4]): does not inhibit; CYP2C19 inhibition (CYP2C19): does not inhibit; CYP2C8 inhibition (CYP2C8): weak inhibitor; half-life ([5]; human, in vivo, single oral dose of 100 mg acalabrutinib, read-out: median terminal elimination half-life (t½) (converted)): 54 min; mean apparent oral clearance (CL/F) ([5]; population pharmacokinetics analysis): 159 L/h; CYP2D6 inhibition (CYP2D6): does not inhibit; metabolic route (CYP3A enzymes): predominantly metabolized by CYP3A enzymes; CYP2C9 inhibition (CYP2C9): weak inhibitor; CYP3A4 induction (CYP3A4): weak inducer
